Tested on: Influenza A/WSN/33-Luciferase virus
Assay: microbe, parasite or virus in culture
Type: cell-based
Details: A549, 72 h, luciferase signal three days later, read-out: IC50 antiviral activity (Luciferase reporter assay)

In order of rising IC50:
1. Cc1cc(Nc2nn(-c3ccc(OC(F)(F)F)cc3)c(=O)c3c2CCC3)c(=O)n(C)c1 [Example 32, 1-[(1,5-dimethyl-2-oxo-3-pyridyl)amino]-3-[4-(trifluoromethoxy)phenyl]-6,7-dihydro-5H-cyclopenta[d]pyridazin-4-one]  12 nM
2. CC(=O)N1CCc2c(Nc3cccn(C)c3=O)nn(-c3ccc(OC(F)(F)F)cc3)c(=O)c2C1 [Example 148, 6-Acetyl-1-[(1-methyl-2-oxo-3-pyridyl)amino]-3-[4-(trifluoromethoxy)phenyl]-7,8-dihydro-5H-pyrido[3,4-d]pyridazin-4-one]  19 nM
3. COC(=O)CCCn1cc(Cl)cc(Nc2nn(-c3ccc(OC(F)(F)F)cc3)c(=O)c3c2CCC3)c1=O [Example 37, methyl 4-[5-chloro-2-oxo-3-[[4-oxo-3-[4-(trifluoromethoxy)phenyl]-6,7-dihydro-5H-cyclopenta[d]pyridazin-1-yl]amino]-1-pyridyl]butanoate]  20 nM
4. CS(=O)(=O)CCn1cccc(Nc2nn(-c3ccc(OC(F)(F)F)cc3)c(=O)c3ccccc23)c1=O [Example 72, 4-[[1-(2-methylsulfonylethyl)-2-oxo-3-pyridyl]amino]-2-[4-(trifluoromethoxy)phenyl]phthalazin-1-one]  24 nM
5. O=c1c(Nc2nn(-c3ccc(OC(F)(F)F)cc3)c(=O)c3c2CCC3)cccn1CCCN1CCOCC1 [Example 44, 1-[[1-(3-morpholinopropyl)-2-oxo-3-pyridyl]amino]-3-[4-(trifluoromethoxy)phenyl]-6,7-dihydro-5H-cyclopenta[d]pyridazin-4-one]  28 nM
6. CC(O)c1ccc2c(Nc3cccn(C)c3=O)nn(-c3ccc(OC(F)(F)F)cc3)c(=O)c2c1 (centres unmarked) [Example 140, 7-(1-Hydroxyethyl)-4-[(1-methyl-2-oxo-3-pyridyl)amino]-2-[4-(trifluoromethoxy)phenyl]phthalazin-1-one]  32 nM
7. O=c1c(Nc2nn(-c3ccc(OC(F)(F)F)cc3)c(=O)c3c2CCC3)cccn1CC1COCCN1 (centres unmarked) [Example 127, 1-[[1-(morpholin-3-ylmethyl)-2-oxo-3-pyridyl]amino]-3-[4-(trifluoromethoxy)phenyl]-6,7-dihydro-5H-cyclopenta[d]pyridazin-4-one]  33 nM
8. NS(=O)(=O)CCCn1cccc(Nc2nn(-c3ccc(OC(F)(F)F)cc3)c(=O)c3ccccc23)c1=O [Example 74, 3-[2-oxo-3-[[4-oxo-3-[4-(trifluoromethoxy)phenyl]phthalazin-1-yl]amino]-1-pyridyl]propane-1-sulfonamide]  34 nM
9. COC(=O)Cn1cccc(Nc2nn(-c3ccc(OC(F)(F)F)cc3)c(=O)c3ccccc23)c1=O [Example 3, methyl 2-[2-oxo-3-[[4-oxo-3-[4-(trifluoromethoxy)phenyl]phthalazin-1-yl]amino]-1-pyridyl]acetate]  38 nM
10. Cn1cccc(Nc2nn(-c3ccc(C(F)(F)F)cc3F)c(=O)c3c2CCC3)c1=O [Example 54, 3-[2-fluoro-4-(trifluoromethyl)phenyl]-1-[(1-methyl-2-oxo-3-pyridyl)amino]-6,7-dihydro-5H-cyclopenta[d]pyridazin-4-one]  52 nM
11. CCn1cncc(Nc2nn(-c3ccc(OC(F)(F)F)cc3)c(=O)c3c2CCN(C(C)=O)C3)c1=O [Example 85, 6-acetyl-1-[(1-ethyl-6-oxo-pyrimidin-5-yl)amino]-3-[4-(trifluoromethoxy)phenyl]-7,8-dihydro-5H-pyrido[3,4-d]pyridazin-4-one]  56 nM
12. CCOC(=O)C1CN(CCn2cccc(Nc3nn(-c4ccc(OC(F)(F)F)cc4)c(=O)c4c3CCC4)c2=O)CCO1 (centres unmarked) [Example 41, ethyl 4-[2-[2-oxo-3-[[4-oxo-3-[4-(trifluoromethoxy)phenyl]-6,7-dihydro-5H-cyclopenta[d]pyridazin-1-yl]amino]-1-pyridyl]ethyl]morpholine-2-carboxylate]  60 nM
13. O=c1c(Nc2nn(-c3ccc(OC(F)(F)F)cc3)c(=O)c3c2CCC3)cncn1CCN1CCCC1 [Example 52, 1-[[6-oxo-1-(2-pyrrolidin-1-ylethyl)pyrimidin-5-yl]amino]-3-[4-(trifluoromethoxy)phenyl]-6,7-dihydro-5H-cyclopenta[d]pyridazin-4-one]  62 nM
14. CN(C)CCn1cncc(Nc2nn(-c3ccc(OC(F)(F)F)cc3)c(=O)c3ccccc23)c1=O [Example 80, 4-[[1-[2-(dimethylamino)ethyl]-6-oxo-pyrimidin-5-yl]amino]-2-[4-(trifluoromethoxy)phenyl]phthalazin-1-one]  68 nM
15. Cn1cccc(Nc2nn(-c3ccc(OC(F)(F)F)cc3)c(=O)c3c2CCN(CCO)C3)c1=O [Example 147, 6-(2-Hydroxyethyl)-1-[(1-methyl-2-oxo-3-pyridyl)amino]-3-[4-(trifluoromethoxy)phenyl]-7,8-dihydro-5H-pyrido[3,4-d]pyridazin-4-one]  76 nM
16. O=C(O)CNCCn1cccc(Nc2nn(-c3ccc(OC(F)(F)F)cc3)c(=O)c3c2CCC3)c1=O [Example 129, 2-[2-[2-Oxo-3-[[4-oxo-3-[4-(trifluoromethoxy)phenyl]-6,7-dihydro-5H-cyclopenta[d]pyridazin-1-yl]amino]-1-pyridyl]ethylamino]acetic acid]  79 nM
17. Cn1cccc(Nc2nn(-c3ccc(C(C)(C)C)cc3)c(=O)c3ccccc23)c1=O [Example 14, 2-(4-tert-butylphenyl)-4-[(1-methyl-2-oxo-3-pyridyl)amino]phthalazin-1-one]  109 nM
18. O=C(O)C1CCCN1CCn1cccc(Nc2nn(-c3ccc(OC(F)(F)F)cc3)c(=O)c3ccccc23)c1=O (centres unmarked) [Example 114, 1-[2-[2-oxo-3-[[4-oxo-3-[4-(trifluoromethoxy)phenyl]phthalazin-1-yl]amino]-1-pyridyl]ethyl]pyrrolidine-2-carboxylic acid]  110 nM
19. O=C(Cn1cccc(Nc2nn(-c3ccc(OC(F)(F)F)cc3)c(=O)c3c2CCC3)c1=O)N1CCNCC1 [Example 167, 1-[[2-Oxo-1-(2-oxo-2-piperazin-1-yl-ethyl)-3-pyridyl]amino]-3-[4-(trifluoromethoxy)phenyl]-6,7-dihydro-5H-cyclopenta[d]pyridazin-4-one]  148 nM
20. CN(CCn1cccc(Nc2nn(-c3ccc(OC(F)(F)F)cc3)c(=O)c3ccccc23)c1=O)CC(=O)O [Example 113, 2-[methyl-[2-[2-oxo-3-[[4-oxo-3-[4-(trifluoromethoxy)phenyl]phthalazin-1-yl]amino]-1-pyridyl]ethyl]amino]acetic acid]  161 nM
21. CN(C)CCNC(=O)Cn1cccc(Nc2nn(-c3ccc(OC(F)(F)F)cc3)c(=O)c3ccccc23)c1=O [Example 93, N-[2-(dimethylamino)ethyl]-2-[2-oxo-3-[[4-oxo-3-[4-(trifluoromethoxy)phenyl]phthalazin-1-yl]amino]-1-pyridyl]acetamide]  166 nM
22. Cn1cccc(Nc2nn(-c3ccc(C4(C)COC4)cc3)c(=O)c3ccccc23)c1=O [Example 10, 2-[4-(3-methyloxetan-3-yl)phenyl]-4-[(1-methyl-2-oxo-3-pyridyl)amino]phthalazin-1-one]  259 nM
23. O=C(O)[C@H]1CCCN1CCn1cccc(Nc2nn(-c3ccc(OC(F)(F)F)cc3)c(=O)c3ccccc23)c1=O [Example 116, (2R)-1-[2-[2-oxo-3-[[4-oxo-3-[4-(trifluoromethoxy)phenyl]phthalazin-1-yl]amino]-1-pyridyl]ethyl]pyrrolidine-2-carboxylic acid]  261 nM
24. Cn1cccc(Nc2nn(-c3ccc(OC(F)(F)F)cc3)c(=O)c3c2CCN(S(C)(=O)=O)C3)c1=O [Example 156, 1-[(1-Methyl-2-oxo-3-pyridyl)amino]-6-methylsulfonyl-3-[4-(trifluoromethoxy)phenyl]-7,8-dihydro-5H-pyrido[3,4-d]pyridazin-4-one]  266 nM
25. O=c1c(Nc2nn(-c3ccc(OC(F)(F)F)cc3)c(=O)c3c2CCC3)cncn1CCN1CC(O)C1 [Example 169, 1-[[1-[2-(3-Hydroxyazetidin-1-yl)ethyl]-6-oxo-pyrimidin-5-yl]amino]-3-[4-(trifluoromethoxy)phenyl]-6,7-dihydro-5H-cyclopenta[d]pyridazin-4-one]  307 nM
26. Cc1ncc(Nc2nn(-c3ccc(OC(F)(F)F)cc3)c(=O)c3ccccc23)c(=O)[nH]1 [Example 65, 4-[(2-methyl-6-oxo-1H-pyrimidin-5-yl)amino]-2-[4-(trifluoromethoxy)phenyl]phthalazin-1-one]  405 nM
27. CCOC(=O)COCCn1cccc(Nc2nn(-c3ccc(OC(F)(F)F)cc3)c(=O)c3ccccc23)c1=O [Example 5, ethyl 2-[2-[2-oxo-3-[[4-oxo-3-[4-(trifluoromethoxy)phenyl]phthalazin-1-yl]amino]-1-pyridyl]ethoxy]acetate]  485 nM
28. CN(C)Cc1ccc2c(Nc3cccn(C)c3=O)nn(-c3ccc(OC(F)(F)F)cc3)c(=O)c2c1 [Example 144, 7-[(Dimethylamino)methyl]-4-[(1-methyl-2-oxo-3-pyridyl)amino]-2-[4-(trifluoromethoxy)phenyl]phthalazin-1-one]  625 nM
29. COC(=O)c1cc(Nc2nn(-c3ccc(OC(F)(F)F)cc3)c(=O)c3c2CCCC3)c(=O)n(C)c1 [Example 23, methyl 1-methyl-6-oxo-5-[[4-oxo-3-[4-(trifluoromethoxy)phenyl]-5,6,7,8-tetrahydrophthalazin-1-yl]amino]pyridine-3-carboxylate]  712 nM
30. COc1ccc(-n2nc(Nc3cccn(C)c3=O)c3c(c2=O)CCC3)cc1OC [Example 172, 3-(3,4-Dimethoxyphenyl)-1-[(1-methyl-2-oxo-3-pyridyl)amino]-6,7-dihydro-5H-cyclopenta[d]pyridazin-4-one]  3480 nM
31. Cc1cc(OC(F)(F)F)ccc1-n1nc(Nc2cccn(C)c2=O)c2c(c1=O)CCC2 [Example 171, 1-[(1-Methyl-2-oxo-3-pyridyl)amino]-3-[2-methyl-4-(trifluoromethoxy)phenyl]-6,7-dihydro-5H-cyclopenta[d]pyridazin-4-one]  6830 nM
32. Cn1cc(C(F)(F)F)cc(Nc2nn(-c3ccc(OC(F)(F)F)cc3)c(=O)c3ccccc23)c1=O [Example 176, 4-[[1-methyl-2-oxo-5-(trifluoromethyl)-3-pyridyl]amino]-2-[4-(trifluoromethoxy)phenyl]phthalazin-1-one]  80500 nM

Source: US10597380B2, “Pyridazinone-based broad spectrum anti-influenza inhibitors” (Hoffmann-La Roche Inc., priority 2017, dated 2020)
